{
  "source": "patent US10005792B2",
  "about": "“Aminoindane-, aminotetrahydronaphthalene- and aminobenzocyclobutane-derived PRMT5-inhibitors” (CTXT PTY LTD, priority 2014, dated 2018)",
  "data": [
    {"target": "T1, Full-length PRMT5 enzyme co-expressed with MEP50 (Homo sapiens (Human), UniProt O14744)", "T1 sequence (O14744 whole entry)": "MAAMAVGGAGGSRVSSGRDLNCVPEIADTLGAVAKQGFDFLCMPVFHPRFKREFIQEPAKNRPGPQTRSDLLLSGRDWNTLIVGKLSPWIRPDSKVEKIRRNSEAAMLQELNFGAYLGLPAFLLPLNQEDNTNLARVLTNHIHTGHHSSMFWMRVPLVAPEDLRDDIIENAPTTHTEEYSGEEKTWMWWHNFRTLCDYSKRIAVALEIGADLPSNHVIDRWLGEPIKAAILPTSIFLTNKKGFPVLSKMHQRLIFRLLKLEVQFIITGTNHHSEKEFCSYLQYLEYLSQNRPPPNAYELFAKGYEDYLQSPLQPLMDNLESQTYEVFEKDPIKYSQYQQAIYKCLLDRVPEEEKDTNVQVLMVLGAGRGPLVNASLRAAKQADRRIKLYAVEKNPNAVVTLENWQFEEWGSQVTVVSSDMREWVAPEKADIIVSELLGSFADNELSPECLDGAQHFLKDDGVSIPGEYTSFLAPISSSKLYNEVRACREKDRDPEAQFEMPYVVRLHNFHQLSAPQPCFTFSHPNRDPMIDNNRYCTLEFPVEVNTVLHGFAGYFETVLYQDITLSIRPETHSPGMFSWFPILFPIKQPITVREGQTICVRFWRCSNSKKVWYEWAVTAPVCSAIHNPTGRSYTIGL", "T1 sequence (Q9BQA1 whole entry partner)": "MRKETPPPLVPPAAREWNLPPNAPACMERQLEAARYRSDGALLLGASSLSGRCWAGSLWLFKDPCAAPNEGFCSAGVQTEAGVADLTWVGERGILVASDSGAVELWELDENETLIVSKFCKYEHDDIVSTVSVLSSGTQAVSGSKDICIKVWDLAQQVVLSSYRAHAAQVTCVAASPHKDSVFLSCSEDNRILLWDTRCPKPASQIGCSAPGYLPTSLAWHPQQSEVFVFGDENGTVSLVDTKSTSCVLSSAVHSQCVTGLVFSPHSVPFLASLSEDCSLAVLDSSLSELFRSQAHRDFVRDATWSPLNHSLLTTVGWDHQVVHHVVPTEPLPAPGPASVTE", "test": "PRMT5 Biochemical Assay", "settings": "200 nM histone H4 derived peptide substrate, 1 μM S-Adenosyl methionine, 4 hours at 37° C, Transcreener EPIGEN fluorescence polarisation", "experimental": "Compounds of the invention may be tested for in vitro activity in the following assay: A histone H4 derived peptide is used as substrate (amino acid sequence: […]NH2). Full-length PRMT5 enzyme (NCBI Reference sequence NP-006100.2) was co-expressed with Hiss-MEP50 in insect cells and purified via Nickel immobilized metal affinity and gel filtration chromatography (“the enzyme”).\nThe 6 μL assay reactions are run in Greiner brand black 384-well low volume plates. All reactions contained assay buffer (phosphate buffered saline, 0.01% (v/v) Tween-20, 0.01% (w/v) albumin from chicken egg white, 1 mM dithiothreitol, 200 nM peptide substrate, 1 μM S-Adenosyl methionine, and 15 ng/reaction enzyme, with the enzyme being omitted from negative control reactions. Compounds were added in a volume of 100 nL from dilution series prepared in DMSO, positive and negative control reactions receiving the same volume DMSO without compound. The plates were sealed with adhesive seals and incubated for 4 hours at 37° C. Reaction progress was measured using the Transcreener™ EPIGEN methyltransferase assay (BellBrook Labs, Madison, Wis.) as recommended by the manufacturer. To each reaction 2 μL detection mix were added, containing coupling enzymes, fluorescence polarisation tracer, and AMP antibody. Plates were incubated for 90 min before being read on a PerkinElmer EnVision™ plate reader in fluorescence polarisation mode.", "units": {"IC50": "nM"}, "values": [
      {"smiles": "O=C(NCC(O)CNC1Cc2ccccc2C1)c1ccc(Cl)cc1", "note": "(stereo not shown) [Compound 1, 4-Chloro-N-(3-((2,3-dihydro-1H-inden-2-yl)amino)-2-hydroxypropyl)benzamide]", "IC50": 792},
      {"smiles": "Cc1nc(-c2ccc(C(F)(F)F)cc2)sc1C(=O)NC[C@H](O)CNC1Cc2ccccc2C1", "note": "[Compound 3, (R)—N-(3-((2,3-Dihydro-1H-inden-2-yl)amino)-2-hydroxypropyl)-4-methyl-2-(4-(trifluoromethyl)phenyl)thiazole-5-carboxamide]", "IC50": 309},
      {"smiles": "O=C(NC[C@H](O)CNC1Cc2ccccc2C1)c1cnn(-c2ccccc2)c1", "note": "[Compound 4, (R)-N-(3-((2,3-Dihydro-1H-inden-2-yl)amino)-2-hydroxypropyl)-1-phenyl-1H-pyrazole-4-carboxamide]", "IC50": 3790},
      {"smiles": "Cc1nn(C)cc1-c1cc(C(=O)NC[C@H](O)CNC2Cc3ccccc3C2)no1", "note": "[Compound 5, (R)-N-(3-((2,3-Dihydro-1H-inden-2-yl)amino)-2-hydroxypropyl)-5-(1,3-dimethyl-1H-pyrazol-4-yl)isoxazole-3-carboxamide]", "IC50": 9780},
      {"smiles": "COc1ccc(-c2cc(C(=O)NC[C@H](O)CNC3Cc4ccccc4C3)no2)cc1", "note": "[Compound 6, (R)-N-(3-((2,3-Dihydro-1H-inden-2-yl)amino)-2-hydroxypropyl)-5-(4-methoxyphenyl)isoxazole-3-carboxamide]", "IC50": 1550},
      {"smiles": "O=C(NC[C@H](O)CNC1Cc2ccccc2C1)c1cnn(-c2ccc(F)cc2)c1", "note": "[Compound 9, (R)-N-(3-((2,3-Dihydro-1H-inden-2-yl)amino)-2-hydroxypropyl)-1-(4-fluorophenyl)-1H-pyrazole-4-carboxamide]", "IC50": 3720},
      {"smiles": "O=C(NC[C@H](O)CNC1Cc2ccccc2C1)c1cnn(-c2cccc(Cl)c2)c1", "note": "[Compound 10, (R)-1-(3-Chlorophenyl)-N-(3-((2,3-dihydro-1H-inden-2-yl)amino)-2-hydroxypropyl)-1H-pyrazole-4-carboxamide]", "IC50": 1440},
      {"smiles": "O=C(NC[C@H](O)CNC1Cc2ccccc2C1)c1ccc(N2CCOCC2)nc1", "note": "[Compound 11, (R)-N-(3-((2,3-Dihydro-1H-inden-2-yl)amino)-2-hydroxypropyl)-6-morpholinonicotinamide]", "IC50": 830},
      {"smiles": "Cc1nnc(-c2ccc(C(=O)NC[C@H](O)CNC3Cc4ccccc4C3)cc2)o1", "note": "[Compound 12, (R)-N-(3-((2,3-Dihydro-1H-inden-2-yl)amino)-2-hydroxypropyl)-4-(5-methyl-1,3,4-oxadiazol-2-yl)benzamide]", "IC50": 695},
      {"smiles": "Cc1nnc(-c2ccc(C(=O)NC[C@@H](O)CNC3Cc4ccccc4C3)cc2)o1", "note": "[Compound 17, (S)-N-(3-((2,3-Dihydro-1H-inden-2-yl)amino)-2-hydroxypropyl)-4-(5-methyl-1,3,4-oxadiazol-2-yl)benzamide]", "IC50": 629},
      {"smiles": "O=C(NCC(O)CNC1Cc2ccccc2C1)c1ccc(C(=O)N2CCC2)cc1", "note": "(stereo not shown) [Compound 20, 4-(Azetidine-1-carbonyl)-N-(3-((2,3-dihydro-1H-inden-2-yl)amino)-2-hydroxypropyl)benzamide]", "IC50": 977},
      {"smiles": "O=C(NCC(O)CNC1Cc2ccccc2C1)c1ccc(C(=O)N2CCCC2)cc1", "note": "(stereo not shown) [Compound 21, N-(3-((2,3-Dihydro-1H-inden-2-yl)amino)-2-hydroxypropyl)-4-(pyrrolidine-1-carbonyl)benzamide]", "IC50": 1110},
      {"smiles": "O=C(NCC(O)CNC1Cc2ccccc2C1)c1cccc(-c2ccccc2)c1", "note": "(stereo not shown) [Compound 25, N-(3-((2,3-Dihydro-1H-inden-2-yl)amino)-2-hydroxypropyl)[1,1′-biphenyl]-3-carboxamide]", "IC50": 2220},
      {"smiles": "O=C(NCC(O)CNC1Cc2ccccc2C1)c1ccccc1-c1ccccc1", "note": "(stereo not shown) [Compound 26, N-(3-((2,3-Dihydro-1H-inden-2-yl)amino)-2-hydroxypropyl)-[1,1′-biphenyl]-2-carboxamide]", "IC50": 3870},
      {"smiles": "O=C(NCC(O)CNC1Cc2ccccc2C1)c1ccc(C(=O)N2CCOCC2)cc1F", "note": "(stereo not shown) [Compound 27, N-(3-((2,3-Dihydro-1H-inden-2-yl)amino)-2-hydroxypropyl)-2-fluoro-4-(morpholine-4-carbonyl)benzamide]", "IC50": 434},
      {"smiles": "O=C(NCC(O)CNC1Cc2ccc(Br)cc2C1)c1ccc(Cl)cc1", "note": "(stereo not shown) [Compound 28, N-(3-((5-Bromo-2,3-dihydro-1H-inden-2-yl)amino)-2-hydroxypropyl)-4-chlorobenzamide]", "IC50": 69400},
      {"smiles": "O=C(NCCC(O)CNC1Cc2ccccc2C1)c1ccc(Cl)cc1", "note": "(stereo not shown) [Compound 29, 4-Chloro-N-(4-((2,3-dihydro-1H-inden-2-yl)amino)-3-hydroxybutyl)benzamide]", "IC50": 4430},
      {"smiles": "O=C(NCC(O)CNC1CCc2ccc(F)cc2C1)c1ccc(Cl)cc1", "note": "(stereo not shown) [Compound 31, 4-Chloro-N-(3-((7-fluoro-1,2,3,4-tetrahydronaphthalen-2-yl)amino)-2-hydroxypropyl)benzamide]", "IC50": 22600},
      {"smiles": "O=C(NCC(O)CNC1CCc2cc(F)ccc2C1)c1ccc(Cl)cc1", "note": "(stereo not shown) [Compound 32, 4-Chloro-N-(3-((6-fluoro-1,2,3,4-tetrahydronaphthalen-2-yl)amino)-2-hydroxypropyl)benzamide]", "IC50": 18800},
      {"smiles": "CN(CC(O)CNC(=O)c1ccc(Cl)cc1)C1CCc2ccccc2C1", "note": "(stereo not shown) [Compound 33, 4-Chloro-N-(2-hydroxy-3-(methyl(1,2,3,4-tetrahydronaphthalen-2-yl)amino)propyl) benzamide]", "IC50": 24900},
      {"smiles": "O=C(NCC(O)CNC1Cc2ccccc21)c1ccc(Cl)cc1", "note": "(stereo not shown) [Compound 34, N-(3-(Bicyclo[4.2.0]octa-1(6),2,4-trien-7-ylamino)-2-hydroxypropyl)-4-chlorobenzamide]", "IC50": 41100},
      {"smiles": "O=C(NCC(O)CNC1Cc2ccccc2C1)c1ccc(C(=O)N2CC3CCC(C2)O3)cc1", "note": "(stereo not shown) [Compound 39, 4-(8-Oxa-3-azabicyclo[3.2.1]octane-3-carbonyl)-N-(3-((2,3-dihydro-1H-inden-2-yl)amino)-2-hydroxypropyl)benzamide]", "IC50": 120},
      {"smiles": "CC1(C)CN(C(=O)c2ccc(C(=O)NCC(O)CNC3Cc4ccccc4C3)cc2)CCO1", "note": "(stereo not shown) [Compound 41, N-(3-((2,3-Dihydro-1H-inden-2-yl)amino)-2-hydroxypropyl)-4-(2,2-dimethylmorpholine-4-carbonyl)benzamide]", "IC50": 157}
    ]},
    {"target": "T1, Full-length PRMT5 enzyme co-expressed with MEP50", "test": "Revised PRMT5 Biochemical Assay", "settings": "1 μM histone H4 derived peptide substrate, 1 μM S-Adenosyl methionine, 4 hours at 37 degree Celsius, Transcreener EPIGEN fluorescence polarisation", "how_it_was_run": "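Full-length human PRMT5 co-expressed with His-MEP50 in insect cells (15 ng/reaction), 1 μM H4-derived peptide and 1 μM SAM in PBS/0.01% Tween-20/egg albumin/1 mM DTT, 4 h at 37 °C. SAH formation read by Transcreener EPIGEN fluorescence polarisation after 90 min detection. IC50 from four-parameter fit of plate-normalised % inhibition.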", "units": {"IC50": "nM"}, "values": [
      {"smiles": "O=C(NC[C@@H](O)CNC1Cc2ccccc2C1)c1ccccc1C(F)F", "note": "[Compound 137, (S)-2-(difluoromethyl)-N-(3-((2,3-dihydro-1H-inden-2-yl)amino)-2-hydroxypropyl)benzamide]", "IC50": 47000},
      {"smiles": "O=C(NC[C@@H](O)CNC1Cc2ccccc2C1)c1cccc(C(F)F)c1", "note": "[Compound 138, (S)-3-(difluoromethyl)-N-(3-((2,3-dihydro-1H-inden-2-yl)amino)-2-hydroxypropyl)benzamide]", "IC50": 16900},
      {"smiles": "CC(=O)N1CC2CCC(C1)C2Nc1cccc(C(=O)NC[C@@H](O)CNC2Cc3ccccc3C2)c1", "note": "(stereo partly drawn) [Compound 139, 3-((3-Acetyl-3-azabicyclo[3.2.1]octan-8-yl)amino)-N—((S)-3-((2,3-dihydro-1H-inden-2-yl)amino)-2-hydroxypropyl)benzamide]", "IC50": 771},
      {"smiles": "CS(=O)(=O)Nc1cccc(C(=O)NC[C@@H](O)CNC2Cc3ccccc3C2)c1", "note": "[Compound 140, (S)—N-(3-((2,3-Dihydro-1H-inden-2-yl)amino)-2-hydroxypropyl)-3-(methylsulfonamido) benzamide]", "IC50": 4680},
      {"smiles": "CCOc1cc(C(=O)N2C3CCC2COC3)c(F)cc1C(=O)NC[C@@H](O)CNC1Cc2ccccc2C1", "note": "[Compound 141, 4-(3-oxa-8-azabicyclo[3.2.1]octane-8-carbonyl)-N—((S)-3-((2,3-dihydro-1H-inden-2-yl)amino)-2-hydroxypropyl)-2-ethoxy-5-fluorobenzamide]", "IC50": 695}
    ]}
  ]
}
